Experiment in all cases: NCI-60 cell line screen, 48 h
Test [1] concerns SW-620 colon.
Test [2] concerns COLO 205 colon.
Test [3] has as its system TK-10 renal.
Test [4] relates to MOLT-4 leukemia.
In test [5] the test system is SK-OV-3 ovarian.
In test [6] the test system is HCT-116 colon.
In test [7] the test system is RXF 393 renal.
In test [8] the test system is SN12C renal.
Test [9] deals with OVCAR-5 ovarian.
Test [10] deals with SK-MEL-2 melanoma.

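96-well plates; 48 h exposure; 5 concentrations. Endpoints by linear interpolation between flanking doses. Not reached: highest tested concentration assigned. GI50 is the concentration that inhibits growth by half. TGI marks complete inhibition of growth.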 Some results are limits rather than exact numbers.

`Cc1cc(C)c2c(c1C)CN1CN2Cc2c(C)c(C)cc(C)c21`: the TGI in [1], in [2], in [3], in test [4], in test [5] and in test [6] was greater than 100 µM each time. The TGI in test [7] was 93.8 µM; in [8] it was greater than 100 µM; in test [9] it was greater than 100 µM.

With `CC(=O)OCC1OC(n2cnc3c(I)nc(I)nc32)C(OC(C)=O)C1OC(C)=O` (stereo not drawn), the TGI is 33 µM in test [10]; 28.4 µM in test [1]; 33.6 µM in [3]; 24.8 µM in [4]; 16.7 µM in test [6]; 38.3 µM in test [7]. Moreover, the TGI in test [8] was 26.7 µM; in [9], 35.1 µM.

With `CC1(C)CC[C@]2(C(=O)O)CCC3(C)C(=CCC4[C@@]5(C)CC[C@H](OC6OCC(O)C(O)C6OC6OC(CO)C(O)C(O)C6O)C(C)(C)C5CC[C@]43C)C2C1` (stereo partly drawn), the TGI in [1] was determined as 4.03 µM; in test [2], 3.49 µM; in test [3] it was 4.42 µM; in [4], 7.95 µM; in test [5], 4.25 µM; in [6], 7.06 µM. Further, the TGI in test [7] turned out to be 3.53 µM; in [8], 3.42 µM; in test [9], 6.93 µM.

On to `Nc1ncn([C@@H]2C=C(CO)C(O)C2O)c(=O)n1` (stereo partly drawn), for which the TGI in [10], in [1], in test [2], in [3], in test [4] and in test [5] was greater than 100 µM in each case. The TGI in test [6], in test [8] and in [9] was greater than 100 µM each time.

Consider `CC/C(=C(/CC)c1ccc(OP(=O)([O-])[O-])cc1)c1ccc(OP(=O)([O-])[O-])cc1.N.N.N.N.[Pt+4].[Pt+4]`, for which the GI50 was 13.1 µM in test [10]; 5.19 µM in [1]; 4.73 µM in test [3]; 1.09 µM in test [4]; 3.85 µM in test [5]; 5.66 µM in test [6]. Also, the GI50 was 2.4 µM in [7], 3.93 µM in test [8] and 6.98 µM in [9]. Besides, the TGI in test [10] was greater than 100 µM; in [1] it was 62.2 µM; in [3] it was greater than 100 µM; in [4], 19.5 µM; in test [5], 17 µM; in test [6], greater than 100 µM. For the same compound, the figures for the TGI in test [7], in [8] and in test [9] were 6.76 µM, 45.7 µM and 77.8 µM, respectively.

On to `COC12c3ccccc3-c3ccccc3C1[C@@H](C(=O)O)[C@H]2C(=O)O` (stereo partly drawn), for which the TGI in test [10], in test [1], in test [2], in test [3], in test [4] and in test [5] was greater than 10 µM each time. Further, the TGI in [7], in [8] and in [9] was greater than 10 µM each time.

In the case of `COc1ccc(C(=O)Nc2ccccc2C#N)cc1`, the TGI in [10], in test [1], in test [2], in [3], in [6] and in test [7] was greater than 100 µM each time. Further, the TGI in [8] and in test [9] was greater than 100 µM in each case.

On to `COc1ccc(C(=O)Nc2ccccc2)cc1[N+](=O)[O-]`, for which the TGI in test [10], in test [1], in [2], in test [3], in test [4] and in [5] was greater than 100 µM throughout. Besides, the TGI in test [7] and in test [8] was greater than 100 µM throughout.

On to `CCOC(=O)c1c(-c2ccccc2)[nH]c2ccccc2c1=O`, for which the TGI in test [1], in test [2], in test [3], in test [4], in [5] and in test [6] was greater than 100 µM in each case. The TGI in test [7] and in test [9] was greater than 100 µM in each case.

As to `Cn1cc(-c2nonc2-c2cn(C)c3ccc(Br)cc23)c2ccccc21`, the GI50 was 3.36 µM in test [10]; 2.53 µM in [1]; 5.33 µM in [3]; 7.52 µM in test [5]; 4.3 µM in [6]; 1.99 µM in test [7]. Moreover, the GI50 in [8] was 5.25 µM; in [9], 7.05 µM. The TGI is greater than 100 µM in [10]; greater than 100 µM in test [1]; greater than 100 µM in test [3]; greater than 100 µM in test [5]; greater than 100 µM in [6]; 5.46 µM in test [7]. The TGI in [8] and in [9] was greater than 100 µM throughout.

As to `c1ccc2c(c1)SCCCSCCCS2`, the TGI in [1], in test [2], in test [3], in test [4], in test [5] and in [6] was greater than 100 µM in each case. Moreover, the TGI in [8] and in test [9] was greater than 100 µM each time.

In the case of `CC[C@]12C=CCN3CC[C@]4(C(=C(C(=O)OC)C1)Nc1ccccc14)[C@@H]32`, the GI50 in test [10] was 4.45 µM; in test [1] it was 3.18 µM; in test [2] it was 5.62 µM; in [3], 4.86 µM; in test [4], 3.16 µM; in test [6], 3.16 µM. The GI50 in test [7] was 2.51 µM; in test [8], 3.62 µM; in test [9], 6.55 µM. The TGI worked out at 17.7 µM in [10]; 12.3 µM in [1]; 20 µM in [2]; 17.6 µM in test [3]; 14.7 µM in [4]; 10.9 µM in test [6]. For the same compound, the TGI in test [7] came to 7.24 µM; in [8], 18.2 µM; in [9] it was 21.2 µM.

Values taken from PubChem BioAssay (NCI).
